In paper PMC11963559, “Identification of novel thiazole derivatives as flaviviral protease inhibitors effective against Dengue (DENV2) and Japanese encephalitis viruses” (Antimicrobial Agents and Chemotherapy, 2025):

How the values were obtained:
[1] = target: T1, DENV2 NS2B–NS3 protease (Dengue virus type 2, UniProt P14340); assay: In vitro DENV2 NS2B/NS3pro inhibition assay using a FRET substrate; assay type: biochemical; conditions: IC50 (µM), DENV protease inhibitory activity, 5 µM substrate, 10 nM NS2b-NS3pro, compounds at 1, 10 and 100 µM, 1 h at RT; compounds 3ao–3av
T1 construct: Activity of recombinant dengue 2 virus NS3 protease in the presence of a truncated NS2B co-factor; The N-terminal domain of NS3 contains a highly conserved protease-active core; made in house; host or cells: Escherichia coli BL21(DE3)
Description: To assess the anti-DENV NS2B–NS3 activity of the compounds, we expressed the DENV2 NS2B–NS3 protease in BL21DE3 cells and subsequently purified it using Ni-NTA affinity chromatography, as outlined in Materials and Methods ([39], [40]). The protease activity assay was performed using different concentrations (1, 2.5, 5, 10, 25, 50, 75, and 100 µM) of a fluorogenic substrate (Abs-Nle-Lys-Arg-Arg-Ser-3-(NO2)Tyr) at various time points (5, 15, 30, 45, and 60 min), as described previously ([39], [41]). […] Therefore, all subsequent assays were conducted with a 1 h incubation time.
The selected compounds were analyzed using in vitro protease assays performed in black 96-well plates. […] All assays were performed in triplicate. The release of free AMC was measured using a Varioskan LUX multimode microplate reader (Thermo Fisher Scientific) at excitation and emission wavelengths of 380 and 460 nm, respectively. Control fluorescence values obtained in the absence of inhibitors were considered 100%, and those obtained in the presence of inhibitors were calculated as the percentage of inhibition of the control using Microsoft Excel and plotted using Origin Pro 2023b. The background AMC in the absence of protease was subtracted before data analysis. Further, protease assay was done using different concentration of the compounds (1, 10, and 100 µM) to evaluate the IC50 for the in vitro assay. IC50 curves were fitted and determined by fitting the nonlinear equation in Origin2023b software. A similar approach was used to analyze the enzymatic kinetics of protease inhibition. The reaction progress was monitored by the release of free aminomethylcoumarin (AMC), as previously described. The substrate was incubated with or without the inhibitor in the aforementioned reaction buffer in the presence of varying concentrations of the substrate. The reactions were initiated by the addition of the NS2B–NS3 protease. Protease activity was monitored for 1 h based on the initial rate of increase in fluorescence intensity at 460 nm, with an excitation wavelength of 380 nm. The results were analyzed using Origin Pro 2023b and the Michaelis–Menten equation to obtain the apparent Michaelis–Menten constants and maximal velocities. All assays were performed in triplicate. For each tested compound, two different concentrations of the inhibitor (0, 10, and 25 µM) were used at various concentrations (0–250 μM) of the substrate. The mechanism of inhibition was determined by observing the deviations in the apparent Km and Vmax values.

[2] = test system: JEV; assay: Time course of JEV genomic RNA accumulation in BHK-21 cells (qRT-PCR); assay type: cell-based; conditions: JEV MOI 0.1, BHK-21, 10 µM; for effect on viral genomic RNA abundance at early time points: 1 and 9 hpi; for effect on viral genomic RNA abundance at later time point: 18 hpi
Text: This is because the initial translation of the viral RNA genome leads to the production of a viral polyprotein, which upon processing by the NS2B–NS3 protease, leads to the generation of viral RdRp (NS5) and other NS proteins necessary for RNA synthesis ([15]). Thus, inhibition of the NS2B–NS3 protease by the two potential compounds should affect viral genomic RNA accumulation within infected cells only at later time points post-infection ([46]). To validate this hypothesis, we assessed the effect of the compounds upon dynamic accumulation of viral RNA at different times of post-infection. Cells were infected with the virus in the absence or presence of 3aq or 3au (10 µM) and harvested at different time points post-infection, and viral genomic RNA copies were estimated using qRT-PCR. […] As expected, the abundance of viral genomic RNA remained low at the early time points of infection (1 and 9 hpi) and subsequently peaked at 18 hpi (Fig. 9B). […] This is an indirect effect of NS2B–NS3 protease inhibition, which in turn blocks polyprotein processing and assembly of the viral RNA synthesis machinery.
Fig 9 Detailed molecular mechanism of the inhibitory action of the compounds. (A and B) BHK-21 cells were infected with JEV virus (MOI = 0.1) for 1, 9, and 18 h with or without 10 µM of compounds. Total RNA extracted at indicated times was evaluated by qRT-PCR. The data are expressed as fold changes of the viral RNA levels normalized to GAPDH control relative to the corresponding DMSO treated samples at each time point. (B) Same experiment as in (A) but expressed as relative to the initial inoculation amount (at 1 hpi). BHK-21 cells were infected with JEV (MOI: 0.1) and treated with 3au (C) and 3aq (D) pre + during + post (−3), during + post (0), and post (3, 6, 9) infection. Viral RNA load were assessed at 24 hpi using qRT-PCR. The data are expressed as fold changes of the viral RNA levels normalized to GAPDH control relative to the corresponding DMSO-treated sample. Each experiment is performed in biological triplicate and repeated thrice. Statistical significance was analyzed by two-tailed equal variance Student’s t-test: *P < 0.05, **P < 0.01, ***P < 0.001, and ****P < 0.0001.
To quantify the viral RNA copy number, quantitative RT-PCR (qRT-PCR) was performed in duplicate using iTaq Universal SYBR Green Supermix (Bio-Rad). The cDNAs used for qPCR analysis were prepared using Power SYBR Green PCR Master Mix (Bio-Rad, #172–5125) in a QuantStudio5 Applied Biosystems real-time PCR system. […] Delta Ct for both control and compound-treated samples was determined and subsequently analyzed by determining the delta Ct to determine the mRNA expression of target genes in control vs treated samples.

T1 sequence (P14340 1476-1653): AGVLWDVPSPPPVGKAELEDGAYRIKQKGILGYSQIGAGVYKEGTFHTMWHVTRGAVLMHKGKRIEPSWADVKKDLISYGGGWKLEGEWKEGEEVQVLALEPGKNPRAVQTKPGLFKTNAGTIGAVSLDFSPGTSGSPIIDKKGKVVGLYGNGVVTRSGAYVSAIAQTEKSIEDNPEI
T1 sequence (P14340 1398-1437): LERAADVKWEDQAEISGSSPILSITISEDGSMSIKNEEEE

Row | SMILES | IC50 [1] | effect on viral genomic RNA abundance at early time points [2] | effect on viral genomic RNA abundance at later time point [2]
1 | COc1ccc(-c2csc(N/N=C(\C)c3ccc(O)cc3)n2)cc1 [3aq] | 15.1 µM | no effect | drastic effect
2 | COc1ccc(-c2csc(N/N=C(\C)c3cc(O)cc(O)c3)n2)cc1 [3au] | 20.8 µM | no effect | drastic effect
